Reference: the supplement of paper PMC10331698
± gives the standard deviation of the averaged measurements.

Tests used:
Experiment in all cases: level (log10 ratio to DMSO vehicle control); higher = higher biomarker level / cell amount than vehicle control
Conditions in all cases: in DMSO
Perfluorooctanamide = compound: NC(=O)C(F)(F)C(F)(F)C(F)(F)C(F)(F)C(F)(F)C(F)(F)C(F)(F)F [Perfluorooctanamide]
Procedure: (§1)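 BioMAP Diversity Plus panel of 12 human primary cell co-culture systems (3C, 4H, LPS, SAg, BT, BF4T, BE3C, CASM3C, HDF3CGF, KF3CT, MyoF, Mphg). Compounds were added 1 h before stimulation and left for 24 h (MyoF 48 h; BT 72 h for soluble read-outs or 6 d for IgG). Biomarkers were read by ELISA, cytotoxicity by SRB, PBMC viability and proliferation by Alamar Blue. Each well value was divided by the mean of 8 DMSO control wells on the same plate and log10 transformed; duplicate blinded samples were tested at 4 concentrations.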

[1] = compound: O=S(=O)(O)C(F)(F)C(F)(F)C(F)(F)C(F)(F)C(F)(F)C(F)(F)C(F)(F)C(F)(F)F [Perfluorooctanesulfonic acid]
Procedure: as §1

[2] = compound: C=C(C)C(=O)OCC(F)(F)C(F)(F)C(F)(F)C(F)(F)C(F)(F)C(F)(F)C(F)(F)F
Procedure: as §1

1H,1H-Heptafluorobutanol = compound: OCC(F)(F)C(F)(F)C(F)(F)F [1H,1H-Heptafluorobutanol]
Procedure: as §1

[3] = compound: C=CC(=O)OCCC(F)(F)C(F)(F)C(F)(F)C(F)(F)F [2-(Perfluorobutyl)ethyl acrylate]
Procedure: as §1

[4] = compound: O=S(=O)(O)C(F)(F)C(F)(F)C(F)(F)C(F)(F)F [Perfluorobutanesulfonic acid]
Procedure: as §1

Test System | level (log10) (Perfluorooctanamide; 6700 nM) | level (log10) (Perfluorooctanamide; 20000 nM) | level (log10) (Perfluorooctanamide; 60000 nM) | level (log10) ([1]; 6700 nM) | level (log10) ([1]; 20000 nM) | level (log10) ([1]; 60000 nM) | level (log10) ([2]; 6700 nM) | level (log10) ([2]; 20000 nM) | level (log10) (1H,1H-Heptafluorobutanol; 6700 nM) | level (log10) (1H,1H-Heptafluorobutanol; 20000 nM) | level (log10) (1H,1H-Heptafluorobutanol; 60000 nM) | level (log10) ([3]; 6700 nM) | level (log10) ([3]; 20000 nM) | level (log10) ([3]; 60000 nM) | level (log10) ([4]; 6700 nM) | level (log10) ([4]; 20000 nM) | level (log10) ([4]; 60000 nM)
HDF3CGF:CD106/VCAM-1 | -0.015 ± 0.0099 | 0.0005 ± 0.005 | -0.016 ± 0.0085 | -0.043 ± 0.03 | -0.089 ± 0.0057 | -0.21 ± 0.083 | -0.01 ± 0.037 | -0.017 ± 0.11 | -0.033 ± 0.048 | -0.003 ± 0.079 | -0.0055 ± 0.09 | -0.068 ± 0.0028 | -0.203 ± 0.049 | -0.317 ± 0.041 | -0.02 ± 0.013 | -0.01 ± 0.0014 | -0.025 ± 0.058
lMphg:sIL-10 | -0.029 ± 0.0028 | 0.013 ± 0.042 | 0.008 ± 0.058 | -0.033 ± 0.076 | -0.0295 ± 0.012 | -0.727 ± 0.099 | -0.0725 ± 0.016 | -0.121 ± 0.31 | -0.165 ± 0.033 | 0.032 ± 0.014 | -0.0565 ± 0.097 | -0.0435 ± 0.011 | -0.07 ± 0.021 | -0.0715 ± 0.054 | 0.043 ± 0.099 | -0.0475 ± 0.032 | 0.0065 ± 0.049
lMphg:IL-1alpha | 0.01 ± 0.034 | 0.0265 ± 0.054 | 0.04 ± 0.058 | 0.0015 ± 0.022 | 0.0075 ± 0.013 | 0.017 ± 0.0085 | -0.0265 ± 0.029 | 0.005 ± 0.13 | 0.0275 ± 0.04 | 0.008 ± 0.018 | 0.015 ± 0.0014 | -0.026 ± 0.028 | -0.033 ± 0.0028 | 0.0145 ± 0.04 | 0.0315 ± 0.016 | -0.0055 ± 0.056 | 0.034 ± 0.031
MyoF:TIMP-1 | -0.016 ± 0.014 | 0.0075 ± 0.012 | -0.0375 ± 0.0021 | -0.002 ± 0.03 | 0.003 ± 0.0071 | 0.102 ± 0.0021 | 0.0225 ± 0.029 | 0.035 ± 0.017 | 0.0115 ± 0.028 | 0.014 ± 0.035 | 0.025 ± 0.03 | -0.031 ± 0.048 | 0.0025 ± 0.018 | 0.016 ± 0.042 | 0.012 ± 0.014 | 0.009 ± 0.0085 | 0.0205 ± 0.00071
CASM3C:SRB | 0 ± 0.0071 | -0.002 ± 0.0014 | -0.003 ± 0.0014 | 0.003 ± 0.0042 | 0.0005 ± 0.0064 | 0.0095 ± 0.011 | -0.0005 ± 0.00071 | 0 ± 0.0071 | -0.0025 ± 0.0092 | 0.0125 ± 0.0021 | 0.009 ± 0.0028 | 0.0015 ± 0.0021 | 0.0055 ± 0.005 | 0.0005 ± 0.00071 | -0.0045 ± 0.0035 | -0.0045 ± 0.0035 | -0.008 ± 0.0028
lMphg:CCL2/MCP-1 | 0.012 ± 0.013 | 0.001 ± 0.025 | -0.0235 ± 0.035 | -0.0055 ± 0.0092 | 0.0015 ± 0.0064 | -0.0075 ± 0.04 | -0.009 ± 0.021 | 0.008 ± 0.02 | -0.01 ± 0.0042 | -0.0075 ± 0.015 | -0.0295 ± 0.012 | -0.0335 ± 0.0078 | -0.0445 ± 0.0078 | -0.012 ± 0.04 | 0.0105 ± 0.0021 | 0.0105 ± 0.0078 | 0.0145 ± 0.025
CASM3C:CD87/uPAR | -0.009 ± 0.0014 | -0.001 ± 0.024 | 0.0045 ± 0.0092 | -0.0005 ± 0.0078 | -0.0085 ± 0.015 | -0.016 ± 0.016 | 0.0005 ± 0.0035 | 0.003 ± 0.023 | -0.0045 ± 0.026 | -0.013 ± 0.016 | 0.015 ± 0.011 | -0.006 ± 0.024 | -0.027 ± 0.018 | -0.023 ± 0.0042 | -0.0275 ± 0.03 | -0.047 ± 0.045 | -0.0575 ± 0.0092
CASM3C:CD106/VCAM-1 | -0.0245 ± 0.005 | -0.014 ± 0.028 | -0.004 ± 0.027 | -0.035 ± 0.0028 | -0.038 ± 0.016 | -0.104 ± 0.041 | 0.011 ± 0.0014 | -0.0155 ± 0.046 | 0.0035 ± 0.033 | 0.0065 ± 0.012 | -0.0015 ± 0.0092 | -0.0175 ± 0.023 | -0.0475 ± 0.0078 | -0.138 ± 0.016 | -0.0465 ± 0.021 | -0.0255 ± 0.025 | -0.033 ± 0.0057
CASM3C:Proliferation | -0.0135 ± 0.005 | -0.036 ± 0.027 | -0.0415 ± 0.015 | 0.006 ± 0.042 | 0.0055 ± 0.022 | 0.057 ± 0.02 | 0.0065 ± 0.033 | -0.022 ± 0.018 | -0.005 ± 0.014 | 0.0045 ± 0.025 | 0.024 ± 0.055 | -0.0375 ± 0.06 | -0.0315 ± 0.069 | -0.123 ± 0.084 | -0.0455 ± 0.044 | -0.0405 ± 0.013 | -0.019 ± 0.017
KF3CT:CXCL10/IP-10 | 0.0285 ± 0.036 | 0.0365 ± 0.037 | 0.0365 ± 0.016 | -0.012 ± 0.02 | -0.0065 ± 0.03 | -0.015 ± 0.013 | 0.0075 ± 0.005 | -0.015 ± 0.011 | 0.004 ± 0.0042 | -0.0025 ± 0.016 | 0.012 ± 0.0071 | -0.009 ± 0.0057 | -0.0125 ± 0.022 | -0.0285 ± 0.0078 | 0.0305 ± 0.025 | 0.0385 ± 0.028 | 0.0405 ± 0.019
HDF3CGF:MMP-1 | 0.0175 ± 0.00071 | 0.003 ± 0.0071 | -0.0025 ± 0.028 | -0.0145 ± 0.0064 | -0.016 ± 0.0014 | 0.0085 ± 0.015 | -0.003 ± 0.02 | -0.0045 ± 0.026 | 0.0025 ± 0.018 | -0.0035 ± 0.0021 | -0.016 ± 0.059 | 0.0135 ± 0.0064 | 0.0905 ± 0.022 | 0.133 ± 0.022 | 0.0085 ± 0.011 | 0.002 ± 0.013 | -0.0165 ± 0.036
BE3C:tPA | 0.008 ± 0.018 | 0.0385 ± 0.011 | 0.049 ± 0.05 | 0.119 ± 0.013 | -0.09 ± 0.0099 | -0.253 ± 0.025 | -0.013 ± 0.0014 | 0.007 | -0.019 ± 0.021 | -0.0125 ± 0.061 | 0.0005 ± 0.005 | -0.036 ± 0.041 | -0.056 ± 0.0014 | -0.13 ± 0.018 | 0.0155 ± 0.022 | -0.0135 ± 0.0078 | 0 ± 0.025
HDF3CGF:CXCL8/IL-8 | -0.0075 ± 0.0021 | -0.0055 ± 0.012 | -0.005 ± 0.0014 | -0.017 ± 0.0057 | -0.014 ± 0.0042 | 0.0055 ± 0.015 | -0.0015 ± 0.016 | 0.0045 ± 0.00071 | -0.0025 ± 0.0064 | 0 ± 0.0028 | 0.0015 ± 0.0021 | -0.003 ± 0.011 | 0 ± 0.0028 | -0.007 ± 0.021 | 0.0025 ± 0.0078 | -0.002 ± 0.0057 | -0.0025 ± 0.0021
BE3C:PAI-I | -0.01 ± 0.016 | 0.016 ± 0.0085 | 0.022 ± 0.0057 | -0.006 ± 0.0014 | -0.195 ± 0.0028 | -0.301 ± 0.0035 | 0.0055 ± 0.0078 | 0.0105 ± 0.018 | -0.0285 ± 0.0078 | -0.0185 ± 0.03 | -0.0115 ± 0.0035 | 0.0125 ± 0.033 | 0.038 ± 0.018 | 0.076 ± 0.021 | -0.0015 ± 0.0035 | -0.006 ± 0.013 | 0.008 ± 0.013
MyoF:Decorin | -0.0145 ± 0.05 | 0.027 ± 0.078 | 0.0305 ± 0.04 | 0.018 ± 0.0071 | 0.0365 ± 0.013 | 0.054 ± 0.018 | -0.011 ± 0.04 | 0.0175 ± 0.081 | 0.0055 ± 0.0064 | 0.013 ± 0.016 | 0.02 ± 0.03 | 0.0005 ± 0.016 | 0.004 ± 0.016 | 0.022 ± 0.037 | 0.0315 ± 0.012 | 0.03 ± 0.016 | 0.083 ± 0.013
KF3CT:PAI-I | -0.004 ± 0.011 | -0.0085 ± 0.011 | 0.0005 ± 0.0064 | -0.0255 ± 0.013 | -0.058 ± 0.02 | -0.135 ± 0.052 | -0.004 ± 0.02 | 0.006 ± 0.0014 | 0.0075 ± 0.0021 | -0.0005 ± 0.0035 | -0.0045 ± 0.0021 | -0.017 ± 0.0071 | -0.005 ± 0.023 | -0.008 ± 0.0085 | -0.014 ± 0.048 | 0.003 ± 0.0099 | -0.007 ± 0.027
